The numbers were not newly measured in patent publication US11918653B2, “Triglyceride otic formulations and uses thereof” (DOMPÉ FARMACEUTICI S.P.A., priority 2017, dated 2024), which cites them from elsewhere.

The conditions of series [1]: after topical application.
The test system of series [2] is TNF-α production in the LPS-induced human PBMC cells. The following applies: read-out: IC50 for inhibiting TNF-α production.
Series [3] concerns the target constitutively activated D136A mutant VP2 receptor (Homo sapiens, UniProt P30518, D136A).
The target of series [4] is T1, lymphotoxin (TNF-β) (Homo sapiens, UniProt P01374).
T1 sequence (P01374 35-205): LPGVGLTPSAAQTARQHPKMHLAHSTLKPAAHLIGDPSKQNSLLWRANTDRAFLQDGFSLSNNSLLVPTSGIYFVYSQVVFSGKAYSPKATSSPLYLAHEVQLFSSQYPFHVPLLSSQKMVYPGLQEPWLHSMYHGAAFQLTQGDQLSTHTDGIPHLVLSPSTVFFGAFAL

The test system of series [5] is tinnitus. The following applies: administered by IV.
Series [6] deals with Meniere's disease symptoms. The following applies: infusion into the scala tympani.
Series [7] has as its system TNF-α. The note with it: LPS-challenged mice.
The subject of series [8] is mouse collagen-induced arthritis model. The following applies: 30 mg/kg dose.
For series [9], the system named is rat arthritis model. The note with it: 30 mg/kg.
The conditions of series [10]: in vivo.
In series [11] the test system is TNF-α production in the LPS-induced MonoMac-6 cells. The note with it: read-out: IC50 for inhibiting TNF-α production.

Regarding `C=CC[C@@H]1/C=C(\C)C[C@H](C)C[C@H](OC)[C@H]2O[C@@](O)(C(=O)C(=O)N3CCCC[C@H]3C(=O)O[C@H](/C(C)=C/[C@@H]3CC[C@@H](O)[C@H](OC)C3)[C@H](C)[C@@H](O)CC1=O)[C@H](C)C[C@@H]2OC` (relative stereo) [tacrolimus, [3S-[3R*[E(1S*,3S*,4S*)], 4S*,5R*,8S*,9E,12R*,14R*,15S*,16R*,18S*,19S*,26aR*]]-5,6,8,11,12,13,14,15,16,17,18,19,24,25,26,26a-hexadecahydro-5,19-dihydroxy-3-[2-(4-hydroxy-3-methoxycyclohexyl)-1-methylethenyl]-14,16-dimethoxy-4,10,12,18-tetramethyl-8-(2-propenyl)-15,19-epoxy-3H-pyrido[2,1-39c][1,4]oxaazacyclotricosine-1,7,20,21(4H,23H)-tetrone monohydrate], the bioavailability entry in series [1] is on record as “less than 0.5%”.
With `CC[C@H](C)[C@H](NC(=O)[C@H](CC(C)C)[C@H](C(C)C)N(O)C=O)C(=O)Nc1ccccn1` [GW3333], the concentration for half-maximal inhibition (IC50) in [2] is 970 nM.
`CCOc1ccc2c(c1)C1(CCC(OCCN3CCOCC3)CC1)C(=O)N2S(=O)(=O)c1ccc(C(=O)NC(C)(C)C)cc1OC.O=C(O)/C=C/C(=O)O` (centres unmarked) [SR-1211463, 1-(4-(N-tert-butylcarbamoyl)-2-methoxybenzenesulfonyl)-5-ethoxy-3-spiro-(4-(2-morpholinoethoxy)cyclohexane)indol-2-one fumarate]: the “behaviour at D136A mutant VP2 receptor” value in [3] was “inverse agonist”.
For Adalimumab, the “patients developing injection site reactions (erythema and/or itching, hemorrhage, pain and/or swelling)” value (systemic administration) is on record as 20%. The “binding or inactivation of lymphotoxin (TNF-β)” value in series [4] is listed as “does not bind or inactivate”.
For `CCN(CC)CC(=O)Nc1c(C)cccc1C` [Lidocaine], the “sufferers in whom noise associated with tinnitus is reduced or eliminated” value in [5] was 60-80%.
Consider `Cc1ccccc1C(=O)Nc1ccc(C(=O)N2CCCC(N(C)C)c3ccccc32)cc1.Cl` (racemic) [OPC-31260, (±)-5-dimethylamino-1-(4-[2-methylbenzoylamino]benzoyl)-2,3,4,5-tetrahydro-1H-benzazepin hydrochloride], for which the “Meniere's disease symptoms” value in series [6] is listed as “marked reduction of Meniere's disease symptoms”. Besides, the “behaviour at D136A mutant VP2 receptor” value in series [3] was “inverse agonist”.
As to `O=C(Nc1cc(Cl)cc2c1[nH]c1cnccc12)c1cccnc1` [PS-1145], in [7], the “production of TNF-α” value is reported as “reduces the production of TNF-α”.
Regarding `Cc1ccc2nc(NCCN)c3ncc(C)n3c2c1` [BMS-345541], in [8], the severity of disease result is “significantly reduced the severity of disease”.
On to etanercept, for which, for the setting “systemically treated”, the “patients experiencing injection site reactions” value is on record as “over one-third of patients”.
Regarding `COc1cccc2nc(-c3cccs3)nc(NN3C(=O)C=C(C)C3=O)c12` [SPC-839], the paw edema entry in [9] is “reduces paw edema”.
Regarding `CC(C)C[C@@H](C(=O)N[C@@H](CCCN/C(N)=N/[N+](=O)[O-])C(=O)Nc1nccs1)[C@H](C(C)C)N(O)C=O` [Nitroarginine analog A], the oral activity result in series [10] was “lacks oral activity”. In addition, the IC50 in [11] was 34 nM.

A word on the IC50: it is the concentration needed to halve the response being measured.
